Data taken from patent US10308659B2, “Pyridine derivatives” (Hoffmann-La Roche Inc., priority 2013, dated 2019).

How the values were obtained:
human CB1 receptors = human CB1 receptors (Homo sapiens (Human), UniProt P21554); experiment: cAMP assay, CHO cells expressing human CB1 receptors; format: cell-based; settings: functional cAMP assay, CHO cells expressing human CB1; read-out: EC50 CB1 human
Method in brief: (§1)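 Transfected CHO cells were preincubated in Krebs Ringer bicarbonate buffer with 1 mM IBMX for 30 min at 30 °C, then exposed to compound for 30 min at 30 °C. cAMP was measured by time-resolved FRET (730/645 nm) against a standard curve spanning 10 μM to 0.13 nM. EC50 values derived from concentration–response data.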

human CB2 receptors = human CB2 receptors (Homo sapiens (Human), UniProt P34972); experiment: cAMP assay, CHO cells expressing human CB2 receptors; format: cell-based; settings: functional cAMP assay, CHO cells expressing human CB2; read-out: EC50 CB2 human
Method in brief: as §1

Sequence of human CB1 receptors (P21554 whole entry): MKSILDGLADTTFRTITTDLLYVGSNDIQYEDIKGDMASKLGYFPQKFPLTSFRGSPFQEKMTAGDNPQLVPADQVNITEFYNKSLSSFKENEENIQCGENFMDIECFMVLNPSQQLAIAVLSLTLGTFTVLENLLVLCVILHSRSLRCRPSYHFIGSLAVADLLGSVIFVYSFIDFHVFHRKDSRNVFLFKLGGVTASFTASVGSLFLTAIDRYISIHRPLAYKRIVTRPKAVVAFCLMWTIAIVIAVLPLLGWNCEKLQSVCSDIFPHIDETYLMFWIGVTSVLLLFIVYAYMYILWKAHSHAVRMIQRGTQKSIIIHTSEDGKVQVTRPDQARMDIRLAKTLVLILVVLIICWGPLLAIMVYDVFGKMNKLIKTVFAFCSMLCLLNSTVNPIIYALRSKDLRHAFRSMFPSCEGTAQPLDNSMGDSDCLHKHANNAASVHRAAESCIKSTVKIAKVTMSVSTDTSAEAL
Sequence of human CB2 receptors (P34972 whole entry): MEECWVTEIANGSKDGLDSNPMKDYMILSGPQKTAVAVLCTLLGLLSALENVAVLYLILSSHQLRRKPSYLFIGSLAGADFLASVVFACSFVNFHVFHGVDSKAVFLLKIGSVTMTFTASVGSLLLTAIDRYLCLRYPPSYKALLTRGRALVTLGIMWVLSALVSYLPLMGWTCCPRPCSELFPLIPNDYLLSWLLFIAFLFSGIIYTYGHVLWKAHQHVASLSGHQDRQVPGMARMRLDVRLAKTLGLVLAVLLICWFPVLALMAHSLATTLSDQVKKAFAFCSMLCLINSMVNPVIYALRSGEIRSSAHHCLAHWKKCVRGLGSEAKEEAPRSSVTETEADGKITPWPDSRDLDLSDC

| Structure (SMILES) | EC50 (human CB1 receptors) [nM] | EC50 (human CB2 receptors) [nM] |
| --- | --- | --- |
| CC(C)(C)c1nc(-c2cc(OCC(F)F)c(C3CC3)cn2)no1 [Example 115, 5-tert-butyl-3-[5-cyclopropyl-4-(2,2-difluoroethoxy)pyridin-2-yl]-1,2,4-oxadiazole] | > 10000 | 2 |
| CC(C)(C)c1nc(-c2cc(OCCF)c(C3CC3)cn2)no1 [Example 116, 5-tert-butyl-3-[5-cyclopropyl-4-(2-fluoroethoxy)pyridin-2-yl]-1,2,4-oxadiazole] | > 10000 | 15.5 |
| CC(C)(C)c1nc(-c2cc(OCc3ccccn3)c(C3CC3)cn2)no1 [Example 117, 5-tert-butyl-3-[5-cyclopropyl-4-(pyridin-2-ylmethoxy)pyridin-2-yl]-1,2,4-oxadiazole] | > 10000 | 53.9 |
| CC(C)(C)c1nc(-c2cc(OCc3ccc(F)cn3)c(C3CC3)cn2)no1 [Example 118, 5-tert-butyl-3-[5-cyclopropyl-4-[(5-fluoropyridin-2-yl)methoxy]pyridin-2-yl]-1,2,4-oxadiazole] | > 10000 | 35 |
| CC(C)(C)c1nc(-c2cc(OCc3cccnc3)c(C3CC3)cn2)no1 [Example 119, 5-tert-butyl-3-[5-cyclopropyl-4-(pyridin-3-ylmethoxy)pyridin-2-yl]-1,2,4-oxadiazole] | > 10000 | 47 |
| C[C@H](Oc1cc(-c2nnc(C(C)(C)C)o2)ncc1C1CC1)C(F)(F)F [Example 120, 2-tert-butyl-5-[5-cyclopropyl-4-[(2S)-1,1,1-trifluoropropan-2-yl]oxypyridin-2-yl]-1,3,4-oxadiazole] | > 10000 | 63 |
| CC(C)(C)c1noc(-c2cc(OC3CCOCC3)c(C3CC3)cn2)n1 [Example 121, 3-tert-butyl-5-(5-cyclopropyl-4-(tetrahydro-2H-pyran-4-yloxy)pyridin-2-yl)-1,2,4-oxadiazole] | > 10000 | 1 |
| CN1CCC[C@H]1COc1cc(-c2nc(C(C)(C)C)no2)ncc1C1CC1 [Example 122, 3-tert-butyl-5-[5-cyclopropyl-4-[[(2S)-1-methylpyrrolidin-2-yl]methoxy]pyridin-2-yl]-1,2,4-oxadiazole] | > 10000 | 146 |
| CC(C)(C)c1noc(-c2cc(OCC(F)F)c(C3CC3)cn2)n1 [Example 123, 3-tert-butyl-5-(5-cyclopropyl-4-(2,2-difluoroethoxy)pyridin-2-yl)-1,2,4-oxadiazole] | > 10000 | 2 |
